# Laboratory results from article PMC7912881, “Polyhydroxy p-Terphenyls from a Mangrove Endophytic Fungus Aspergillus candidus LDJ-5” (Marine Drugs, 2021).
# Tested on: not listed separately
# Assay: Cytotoxicity, SRB method
# Assay type: cell-based
# Settings: L-02 normal liver cells, L-02 human normal liver cell line
# Description: (§1) All p-terphenyls (1–7) were tested for their cytotoxicity against the L-02, MGC-803, HCT-116, BEL-7402, A549, SH-SY5Y, Hela, U87, K562, HL-60, HO8910, and MCF-7 cell lines using either the SRB or the MTT method with adriamycin as positive control. […] Recently, we have also reported nine prenylated p-terphenyls from Aspergillus candidus LDJ-5 [6]. Most of the prenylated p-terphenyls were cytotoxic. Additionally, comparing to prenylcandidusin B and prenylcandidusin C, compounds 2 and 3 were distinguished by the presence of one hydroxy group and the lack of the isoprenyl group on ring C (C-3″). […] The antimicrobial activities of compounds 1–7 were evaluated in vitro against Proteus species, Pseudomonas aeruginosa, Bacillus subtilis, B. cereus, and Mycobacterium phlei. […] Asperterphenyllin A (1) was also tested for antiviral activity and protein tyrosine phosphatase 1B (PTP1B) inhibitory activity. The antiviral activity of asperterphenyllin A (1) was evaluated against the influenza A virus (H1N1) using the cytopathic effect (CPE) inhibition assay. […] Protein tyrosine phosphatase 1B (PTP1B) has been reported to be a novel drug target for diabetes and obesity. It has also been considered to be involved in tumorigenesis.
# (§2) The cytotoxicity of 1–7 and positive control was evaluated against human leukemia cell lines K562 and HL-60 (using the MTT method), human normal liver cell line L-02, human gastric cancer cell lines MGC-803, human colon cancer lines HCT-116, human hepatocacinoma cell line BEL-7402, human lung cancer cell lines A549, human neuroblastoma cell line SH-SY5Y, human cervical cancer cell lines HeLa, human glioma cell lines U87, human ovarian cancer cell lines HO-8910, and human breast cancer cell lines MCF-7 (using the SRB method). Adriamycin was used as positive control. The detailed methodologies for biological testing have been described in previous reports. All the cell lines were purchased from the Institute of Biochemistry and Cell Biology, Chinese Academy of Sciences (Shanghai, China).
row,Structure (SMILES),IC50
1,"COc1cc(-c2ccc(O)cc2)c(OC)c(O)c1-c1ccc(OC/C=C(\C)CO)c(O)c1 [Compound 7, Asperterphenyllin G]",1700 nM

# Tested on: A549 cell line
# Assay: Cytotoxicity, SRB method
# Assay type: cell-based
# Settings: A549 human lung cancer cell line
# Description: as §1, §2
row,Structure (SMILES),IC50
1,"COc1cc(-c2ccc(O)cc2)c(OC)c(O)c1-c1ccc(OC/C=C(\C)CO)c(O)c1 [Compound 7, Asperterphenyllin G]",400 nM

# Tested on: BEL-7402 cell line
# Assay: Cytotoxicity, SRB method
# Assay type: cell-based
# Settings: BEL-7402 human hepatocarcinoma cell line
# Description: as §1, §2
row,Structure (SMILES),IC50
1,"COc1cc(-c2ccc(O)cc2)c(OC)c(O)c1-c1ccc(OC/C=C(\C)CO)c(O)c1 [Compound 7, Asperterphenyllin G]",6000 nM

# Tested on: HCT-116 cell line
# Assay: Cytotoxicity, SRB method
# Assay type: cell-based
# Settings: HCT-116 human colon cancer cell line
# Description: as §1, §2
row,Structure (SMILES),IC50
1,"COc1cc(-c2ccc(O)cc2)c(OC)c(O)c1-c1ccc(OC/C=C(\C)CO)c(O)c1 [Compound 7, Asperterphenyllin G]",800 nM

# Tested on: HO8910 cell line
# Assay: Cytotoxicity, SRB method
# Assay type: cell-based
# Settings: HO-8910, HO8910 human ovarian cancer cell line
# Description: as §1, §2
row,Structure (SMILES),IC50
1,"COc1cc(-c2ccc(O)cc2)c(OC)c(O)c1-c1ccc(OC/C=C(\C)CO)c(O)c1 [Compound 7, Asperterphenyllin G]",1300 nM

# Tested on: Hela cell line
# Assay: Cytotoxicity, SRB method
# Assay type: cell-based
# Settings: Hela human cervical cancer cell line
# Description: as §1, §2
row,Structure (SMILES),IC50
1,"COc1cc(-c2ccc(O)cc2)c(OC)c(O)c1-c1ccc(OC/C=C(\C)CO)c(O)c1 [Compound 7, Asperterphenyllin G]",1700 nM

# Tested on: MGC-803 cell line
# Assay: Cytotoxicity, SRB method
# Assay type: cell-based
# Settings: MGC-803 human gastric cancer cell line
# Description: as §1, §2
row,Structure (SMILES),IC50
1,"COc1cc(-c2ccc(O)cc2)c(OC)c(O)c1-c1ccc(OC/C=C(\C)CO)c(O)c1 [Compound 7, Asperterphenyllin G]",1000 nM

# Tested on: SH-SY5Y cell line
# Assay: Cytotoxicity, SRB method
# Assay type: cell-based
# Settings: SH-SY5Y human neuroblastoma cell line
# Description: as §1, §2
row,Structure (SMILES),IC50
1,"COc1cc(-c2ccc(O)cc2)c(OC)c(O)c1-c1ccc(OC/C=C(\C)CO)c(O)c1 [Compound 7, Asperterphenyllin G]",600 nM

# Tested on: U87 cell line
# Assay: Cytotoxicity, SRB method
# Assay type: cell-based
# Settings: U-87 MG, U87 human glioma cell line
# Description: as §1, §2
row,Structure (SMILES),IC50
1,"COc1cc(-c2ccc(O)cc2)c(OC)c(O)c1-c1ccc(OC/C=C(\C)CO)c(O)c1 [Compound 7, Asperterphenyllin G]",900 nM

# Tested on: L-02, MGC-803, HCT-116, BEL-7402, A549, SH-SY5Y, Hela, U87, K562, HL-60, HO8910, and MCF-7 cell lines
# Assay: Cytotoxicity against the panel of cell lines (SRB or MTT method)
# Assay type: cell-based, human
# Settings: Homo sapiens, read-out: IC50 values against nine cell lines (range)
# Description: as §1, §2
row,Structure (SMILES),IC50
1,"COc1cc(-c2ccc(O)cc2)c(OC)c(O)c1-c1ccc(OC/C=C(\C)CO)c(O)c1 [Compound 7, Asperterphenyllin G]",400 to 1700 nM

# Same assay, conditions: Homo sapiens; all twelve tested cell lines, SRB or MTT; read-out: IC50 against all tested cell lines
row,Structure (SMILES),IC50
1,"COc1cc2oc3c(OC)c(-c4ccc(O)c(O)c4)cc(OC)c3c2cc1O [Compound 3, Asperterphenyllin C]",> 50000 nM
2,"COc1cc(-c2c(OC)cc(-c3ccccc3)c(OC)c2O)ccc1O [Compound 5, Asperterphenyllin E]",> 50000 nM
3,"COc1c(-c2ccc(O)c(O)c2)cc(OC)c2c1oc1c(-c3c(O)c(O)cc4c3oc3c(OC)c(-c5ccc(O)c(O)c5)cc(OC)c34)c(O)c(O)cc12 [Compound 1, Asperterphenyllin A]",> 50000 nM
4,"COc1cc(-c2ccc(O)cc2)c(OC)c(OC)c1-c1ccc(O)c(O)c1 [Compound 4, Asperterphenyllin D]",> 50000 nM

# Same assay, conditions: compared with prenylcandidusins on K562
row,Structure (SMILES),cytotoxicity effects
1,"COc1cc2oc3c(OC)c(-c4ccc(O)c(O)c4)cc(OC)c3c2cc1O [Compound 3, Asperterphenyllin C]",did not show any cytotoxicity effects

# Tested on: influenza A virus (H1N1)
# Assay: Anti-influenza A viral (H1N1) CPE inhibition assay
# Assay type: cell-based
# Settings: H1N1, CPE inhibition assay, read-out: IC50 anti-influenza virus A (H1N1) activity
# Description: as §1
# The antiviral activity of compound 1 against influenza A virus (H1N1) was evaluated by the CPE inhibition assay. […]
row,Structure (SMILES),IC50
1,"COc1c(-c2ccc(O)c(O)c2)cc(OC)c2c1oc1c(-c3c(O)c(O)cc4c3oc3c(OC)c(-c5ccc(O)c(O)c5)cc(OC)c34)c(O)c(O)cc12 [Compound 1, Asperterphenyllin A]",53000 nM

# Target: T1, protein tyrosine phosphatase 1B (PTP1B) (Homo sapiens, UniProt P18031)
# T1 sequence (P18031 1-435): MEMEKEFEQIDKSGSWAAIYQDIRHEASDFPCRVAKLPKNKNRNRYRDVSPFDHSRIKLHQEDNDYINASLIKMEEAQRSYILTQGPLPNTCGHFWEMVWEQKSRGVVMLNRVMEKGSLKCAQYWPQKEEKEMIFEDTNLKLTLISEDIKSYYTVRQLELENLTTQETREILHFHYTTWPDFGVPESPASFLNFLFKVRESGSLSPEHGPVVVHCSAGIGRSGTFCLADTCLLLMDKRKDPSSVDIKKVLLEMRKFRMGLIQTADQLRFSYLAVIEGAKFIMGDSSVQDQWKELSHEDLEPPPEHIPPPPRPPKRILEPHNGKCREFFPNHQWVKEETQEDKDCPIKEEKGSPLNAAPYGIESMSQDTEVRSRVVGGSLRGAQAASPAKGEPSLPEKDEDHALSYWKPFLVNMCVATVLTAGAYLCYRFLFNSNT
# Assay: PTP1B inhibitory assay (pNPP hydrolysis)
# Assay type: biochemical
# Settings: pNPP substrate, room temperature
row,Structure (SMILES),IC50
1,"COc1c(-c2ccc(O)c(O)c2)cc(OC)c2c1oc1c(-c3c(O)c(O)cc4c3oc3c(OC)c(-c5ccc(O)c(O)c5)cc(OC)c34)c(O)c(O)cc12 [Compound 1, Asperterphenyllin A]",21000 nM

# Tested on: Bacillus cereus
# Assay: Antimicrobial activity, agar dilution method
# Assay type: cell-based
# Settings: not given
# Description: as §1
# (§3) Antimicrobial activities were evaluated as previously reported by using the agar dilution method. The five microbial strains included Proteus sp., Pseudomonas aeruginosa, Bacillus subtilis, B. cereus, and Mycobacterium phlei. Ciprofloxacin was used as positive control. All strains were donated by the Qingdao municipal hospital.
row,Structure (SMILES),MIC
1,"COc1cc2oc3c(OC)c(-c4ccc(O)c(O)c4)cc(OC)c3c2cc1O [Compound 3, Asperterphenyllin C]",> 200 µg/mL
2,"COc1cc(-c2c(OC)cc(-c3ccccc3)c(OC)c2O)ccc1O [Compound 5, Asperterphenyllin E]",70 µg/mL
3,"COc1c(-c2ccc(O)c(O)c2)cc(OC)c2c1oc1c(-c3c(O)c(O)cc4c3oc3c(OC)c(-c5ccc(O)c(O)c5)cc(OC)c34)c(O)c(O)cc12 [Compound 1, Asperterphenyllin A]",> 200 µg/mL
4,"COc1cc(-c2ccc(O)cc2)c(OC)c(OC)c1-c1ccc(O)c(O)c1 [Compound 4, Asperterphenyllin D]",70 µg/mL
5,"COc1cc(-c2ccc(O)cc2)c(OC)c(O)c1-c1ccc(OC/C=C(\C)CO)c(O)c1 [Compound 7, Asperterphenyllin G]",87 µg/mL

# Tested on: Bacillus subtilis
# Assay: Antimicrobial activity, agar dilution method
# Assay type: cell-based
# Settings: not given
# Description: as §1, §3
row,Structure (SMILES),MIC
1,"COc1cc2oc3c(OC)c(-c4ccc(O)c(O)c4)cc(OC)c3c2cc1O [Compound 3, Asperterphenyllin C]",38 µg/mL
2,"COc1cc(-c2c(OC)cc(-c3ccccc3)c(OC)c2O)ccc1O [Compound 5, Asperterphenyllin E]",70 µg/mL
3,"COc1c(-c2ccc(O)c(O)c2)cc(OC)c2c1oc1c(-c3c(O)c(O)cc4c3oc3c(OC)c(-c5ccc(O)c(O)c5)cc(OC)c34)c(O)c(O)cc12 [Compound 1, Asperterphenyllin A]",> 200 µg/mL
4,"COc1cc(-c2ccc(O)cc2)c(OC)c(OC)c1-c1ccc(O)c(O)c1 [Compound 4, Asperterphenyllin D]",> 200 µg/mL
5,"COc1cc(-c2ccc(O)cc2)c(OC)c(O)c1-c1ccc(OC/C=C(\C)CO)c(O)c1 [Compound 7, Asperterphenyllin G]",> 200 µg/mL

# Tested on: Mycobacterium phlei
# Assay: Antimicrobial activity, agar dilution method
# Assay type: cell-based
# Settings: Mycolicibacterium phlei
# Description: as §1, §3
row,Structure (SMILES),MIC
1,"COc1cc2oc3c(OC)c(-c4ccc(O)c(O)c4)cc(OC)c3c2cc1O [Compound 3, Asperterphenyllin C]",38 µg/mL
2,"COc1cc(-c2c(OC)cc(-c3ccccc3)c(OC)c2O)ccc1O [Compound 5, Asperterphenyllin E]",70 µg/mL
3,"COc1c(-c2ccc(O)c(O)c2)cc(OC)c2c1oc1c(-c3c(O)c(O)cc4c3oc3c(OC)c(-c5ccc(O)c(O)c5)cc(OC)c34)c(O)c(O)cc12 [Compound 1, Asperterphenyllin A]",> 200 µg/mL
4,"COc1cc(-c2ccc(O)cc2)c(OC)c(OC)c1-c1ccc(O)c(O)c1 [Compound 4, Asperterphenyllin D]",> 200 µg/mL
5,"COc1cc(-c2ccc(O)cc2)c(OC)c(O)c1-c1ccc(OC/C=C(\C)CO)c(O)c1 [Compound 7, Asperterphenyllin G]",> 200 µg/mL

# Tested on: Proteus species
# Assay: Antimicrobial activity, agar dilution method
# Assay type: cell-based
# Settings: not given
# Description: as §1, §3
row,Structure (SMILES),MIC
1,"COc1cc2oc3c(OC)c(-c4ccc(O)c(O)c4)cc(OC)c3c2cc1O [Compound 3, Asperterphenyllin C]",19 µg/mL
2,"COc1cc(-c2c(OC)cc(-c3ccccc3)c(OC)c2O)ccc1O [Compound 5, Asperterphenyllin E]",35 µg/mL
3,"COc1c(-c2ccc(O)c(O)c2)cc(OC)c2c1oc1c(-c3c(O)c(O)cc4c3oc3c(OC)c(-c5ccc(O)c(O)c5)cc(OC)c34)c(O)c(O)cc12 [Compound 1, Asperterphenyllin A]",> 200 µg/mL
4,"COc1cc(-c2ccc(O)cc2)c(OC)c(OC)c1-c1ccc(O)c(O)c1 [Compound 4, Asperterphenyllin D]",> 200 µg/mL
5,"COc1cc(-c2ccc(O)cc2)c(OC)c(O)c1-c1ccc(OC/C=C(\C)CO)c(O)c1 [Compound 7, Asperterphenyllin G]",> 200 µg/mL

# Tested on: Pseudomonas aeruginosa
# Assay: Antimicrobial activity, agar dilution method
# Assay type: cell-based
# Settings: not given
# Description: as §1, §3
row,Structure (SMILES),MIC
1,"COc1cc2oc3c(OC)c(-c4ccc(O)c(O)c4)cc(OC)c3c2cc1O [Compound 3, Asperterphenyllin C]",> 200 µg/mL
2,"COc1cc(-c2c(OC)cc(-c3ccccc3)c(OC)c2O)ccc1O [Compound 5, Asperterphenyllin E]",70 µg/mL
3,"COc1c(-c2ccc(O)c(O)c2)cc(OC)c2c1oc1c(-c3c(O)c(O)cc4c3oc3c(OC)c(-c5ccc(O)c(O)c5)cc(OC)c34)c(O)c(O)cc12 [Compound 1, Asperterphenyllin A]",> 200 µg/mL
4,"COc1cc(-c2ccc(O)cc2)c(OC)c(OC)c1-c1ccc(O)c(O)c1 [Compound 4, Asperterphenyllin D]",> 200 µg/mL
5,"COc1cc(-c2ccc(O)cc2)c(OC)c(O)c1-c1ccc(OC/C=C(\C)CO)c(O)c1 [Compound 7, Asperterphenyllin G]",> 200 µg/mL
